The results in this text go back to patent US10894775B2, “Piperidine derivatives as liver X receptor beta agonists, compositions, and their use” (Merck Sharp & Dohme Corp., priority 2016, dated 2021).

The structures appear in SMILES notation.

In experiment [1] the target is T1, glutathione-S-transferase (GST) tagged LXRbeta LBD (ligand binding domain) (Homo sapiens, UniProt P55055).
T1 construct: purchased Invitrogen pv4658.pps
T1 sequence (P55055 222-460 limits assumed): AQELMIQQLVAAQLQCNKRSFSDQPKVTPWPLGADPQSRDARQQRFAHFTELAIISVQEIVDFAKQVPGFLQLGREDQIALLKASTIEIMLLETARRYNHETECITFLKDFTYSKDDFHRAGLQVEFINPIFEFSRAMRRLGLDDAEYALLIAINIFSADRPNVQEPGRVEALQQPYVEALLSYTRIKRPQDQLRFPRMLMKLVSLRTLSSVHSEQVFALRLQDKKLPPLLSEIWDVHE
The experiment can be described thus: LanthaScreen TR-FRET Liver X Receptor Coactivator Assay, LXR beta. Format: biochemical. Conditions: for Emax: efficacy (Emax) in relation to reference dual agonist T0901317, read-out: LXR beta actiivty at max dose (%); for EC50: potency (Inflection Point) of compound-induced co-activator recruitment, TR-FRET, read-out: LXR beta IP. Put shortly: (§1)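 TR-FRET coactivator recruitment read-out: compounds first received either LBD, followed by a mix of terbium-labelled anti-GST antibody and fluorescein coactivator peptide. Signal measured by time-resolved FRET once plates had incubated at room temperature.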
(In general: Time-resolved FRET reads energy transfer from a long-lived donor to a nearby acceptor.)

Experiment [2] concerns the target T2, glutathione-S-transferase (GST) tagged LXRalpha LBD (ligand binding domain) (Homo sapiens, UniProt Q13133).
T2 construct: purchased Invitrogen pv4655
T2 sequence (Q13133 209-447 limits assumed): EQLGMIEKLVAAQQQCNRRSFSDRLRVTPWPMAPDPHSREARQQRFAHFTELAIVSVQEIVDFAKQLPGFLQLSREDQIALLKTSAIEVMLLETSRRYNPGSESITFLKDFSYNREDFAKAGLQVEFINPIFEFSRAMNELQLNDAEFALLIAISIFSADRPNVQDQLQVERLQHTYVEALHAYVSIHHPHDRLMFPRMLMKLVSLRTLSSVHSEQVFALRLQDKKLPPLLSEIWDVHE
The experiment is described as follows: LanthaScreen TR-FRET Liver X Receptor Coactivator Assay, LXR alpha. As to conditions: for Emax: efficacy (Emax) in relation to reference dual agonist T0901317, read-out: LXR alpha actiivty at max dose (%). Format: biochemical. Put shortly:
as §1

For the molecule `CN(C)C(=O)c1ccc(CCCC2CC3(CCN(C(=O)C(C)(C)c4ccccc4)CC3)C2)cc1Cl` [Example 16-3, 2-chloro-N,N-dimethyl-4-(3-(7-(2-methyl-2-phenylpropanoyl)-7-azaspiro[3.5]nonan-2-yl)propyl)benzamide], the Emax in experiment [1] stood at 108%; in experiment [2] it was 50%. The EC50 in experiment [1] amounted to 56 nM; in experiment [2] (potency (Inflection Point) of compound-induced co-activator recruitment, TR-FRET, read-out: LXR alpha IP), 423 nM.

Consider `CN(C)C(=O)c1ccc(S(=O)(=O)CCCCC2CCN(C(=O)C(C)(C)c3ccccc3)CC2)cc1Cl` [Example 22-1, 2-chloro-N,N-dimethyl-4-(4-(1-(2-methyl-2-phenylpropanoyl)piperidin-4-yl)butylsulfonyl)benzamide], for which, in experiment [1], the Emax came out at 57% and the EC50 is 1990 nM. For the same molecule, the Emax in experiment [2] was determined as 2%. The “LXR alpha IP (nM)” value in experiment [2] (potency (Inflection Point) of compound-induced co-activator recruitment, TR-FRET) is reported as “No IP”.
